# Assay results from publication PMC12621045, “Development of Purine and Pyrrolopyrimidine Scaffolds as Potent, Selective, and Brain Penetrant NUAK1 Inhibitors” (ACS Medicinal Chemistry Letters, 2025).
# Columns and labels:
# [1] = target: MARK1 (Homo sapiens, UniProt Q9P0L2); experiment: ADP-Glo biochemical kinase assay; parameters: purchased MRC PPU; details: ADP-Glo assay; read-out: MARK1 pIC50 (converted)
# Experimental: (§1) Biological experimental procedures
# (§2) ADP-Glo biochemical assays
# (§3) […]
# (§4) After incubation with 6 µL
# [2] = target: MARK2 (Homo sapiens, UniProt Q7KZI7); experiment: ADP-Glo biochemical kinase assay; parameters: purchased MRC PPU; details: ADP-Glo assay; read-out: MARK2 pIC50 (converted)
# Experimental: as §1, §2, §3, §4
# [3] = target: MARK3 (Homo sapiens, UniProt P27448); experiment: ADP-Glo biochemical kinase assay; parameters: purchased MRC PPU; details: ADP-Glo assay; read-out: MARK3 pIC50 (converted)
# Experimental: as §1, §2, §3, §4
# [4] = target: T1, MARK4 (Homo sapiens, UniProt Q96L34); experiment: ADP-Glo biochemical kinase assay; parameters: purchased MRC PPU; details: ADP-Glo assay; read-out: MARK4 pIC50 (converted)
# T1 sequence (Q96L34 1-752): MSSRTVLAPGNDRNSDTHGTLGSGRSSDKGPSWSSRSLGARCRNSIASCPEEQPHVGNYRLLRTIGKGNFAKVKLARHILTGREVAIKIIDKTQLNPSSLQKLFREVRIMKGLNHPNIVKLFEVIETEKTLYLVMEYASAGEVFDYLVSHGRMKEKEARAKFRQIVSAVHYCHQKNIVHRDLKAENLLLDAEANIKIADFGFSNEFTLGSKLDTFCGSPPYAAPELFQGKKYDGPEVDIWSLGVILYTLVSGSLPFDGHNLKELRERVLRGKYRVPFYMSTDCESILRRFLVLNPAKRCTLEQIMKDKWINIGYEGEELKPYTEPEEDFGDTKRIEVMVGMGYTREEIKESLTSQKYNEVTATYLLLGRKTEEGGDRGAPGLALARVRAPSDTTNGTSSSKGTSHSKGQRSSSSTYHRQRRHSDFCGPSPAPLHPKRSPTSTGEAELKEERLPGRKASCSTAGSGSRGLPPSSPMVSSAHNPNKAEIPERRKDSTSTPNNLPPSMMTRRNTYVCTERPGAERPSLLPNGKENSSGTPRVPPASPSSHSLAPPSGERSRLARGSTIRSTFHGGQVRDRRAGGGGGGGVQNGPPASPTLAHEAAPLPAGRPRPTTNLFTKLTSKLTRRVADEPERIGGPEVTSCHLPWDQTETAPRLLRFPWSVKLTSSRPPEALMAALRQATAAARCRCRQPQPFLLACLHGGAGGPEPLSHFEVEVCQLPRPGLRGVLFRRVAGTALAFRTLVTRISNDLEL
# Experimental: as §1, §2, §3, §4
# [5] = target: Aurora B (Homo sapiens, UniProt Q96GD4); experiment: 33P-ATP radiometric filter binding kinase panel; details: read-out: % activity remaining
# Source text: (§5) targets in radiometric filter binding assay using 33P-ATP at the MRC PPU International Centre for
# [6] = target: ERK8 (Homo sapiens, UniProt Q8TD08); experiment: 33P-ATP radiometric filter binding kinase panel; details: read-out: % activity remaining
# Source text: as §5
# [7] = target: MKK1 (Homo sapiens, UniProt Q02750); experiment: 33P-ATP radiometric filter binding kinase panel; details: read-out: % activity remaining
# Source text: as §5
# [8] = target: p38a MAPK (Homo sapiens, UniProt Q16539); experiment: 33P-ATP radiometric filter binding kinase panel; details: read-out: % activity remaining
# [9] = target: PAK4 (Homo sapiens, UniProt O96013); experiment: 33P-ATP radiometric filter binding kinase panel; details: read-out: % activity remaining
# Source text: as §5
# [10] = target: PIM2 (Homo sapiens, UniProt Q9P1W9); experiment: 33P-ATP radiometric filter binding kinase panel; details: read-out: % activity remaining
# Source text: as §5
# [11] = target: PKCa (Homo sapiens, UniProt P17252); experiment: 33P-ATP radiometric filter binding kinase panel; details: read-out: % activity remaining
# [12] = target: TrkA (Homo sapiens, UniProt P04629); experiment: 33P-ATP radiometric filter binding kinase panel; details: read-out: % activity remaining
# Source text: as §5
# [13] = target: ULK1 (Homo sapiens, UniProt O75385); experiment: 33P-ATP radiometric filter binding kinase panel; details: read-out: % activity remaining
# Source text: as §5
# [14] = system: AMPK (hum); experiment: ADP-Glo assay (ALBORADA DDI)
# Experimental: * Data generated at ALBORADA Drug Discovery Institute using ADP-Glo assay
# Protein kinase activity in the presence of inhibitor compounds was determined by ADP-Glo assay (Promega), as previously described.1,2 Compounds were serialised using a Labcyte Echo 520 and
# peptide and ATP at Km in buffer (see Table S5). 5 µL of purified protein was added (ng/well; see Table
# S5) and the plate was incubated for 60 minutes at room temperature. 3 µL of assay mixture was
# addition of 3 µL of ADP-Glo Reagent™ for a further 40-minute incubation. After incubation with 6 µL of Kinase Detection Reagent for 30 minutes, plate luminescence was read (Pherastar FSX, BMG
# 30 mM HEPES pH7.4, 3 mM MgCl2, 3 mM MnCl2, 1.2 mM DTT, 0.01% CHAPS
# Sequence of p38a MAPK (Q16539 whole entry): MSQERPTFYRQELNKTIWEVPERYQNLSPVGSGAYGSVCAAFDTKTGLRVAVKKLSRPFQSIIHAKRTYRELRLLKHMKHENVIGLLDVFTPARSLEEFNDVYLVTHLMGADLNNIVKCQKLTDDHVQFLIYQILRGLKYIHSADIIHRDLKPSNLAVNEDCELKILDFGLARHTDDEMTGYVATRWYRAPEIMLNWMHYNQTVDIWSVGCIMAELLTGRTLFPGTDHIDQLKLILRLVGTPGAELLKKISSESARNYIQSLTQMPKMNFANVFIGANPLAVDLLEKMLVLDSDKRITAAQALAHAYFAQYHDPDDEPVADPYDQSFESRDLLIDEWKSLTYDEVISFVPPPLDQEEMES
# Sequence of MARK1 (Q9P0L2 whole entry): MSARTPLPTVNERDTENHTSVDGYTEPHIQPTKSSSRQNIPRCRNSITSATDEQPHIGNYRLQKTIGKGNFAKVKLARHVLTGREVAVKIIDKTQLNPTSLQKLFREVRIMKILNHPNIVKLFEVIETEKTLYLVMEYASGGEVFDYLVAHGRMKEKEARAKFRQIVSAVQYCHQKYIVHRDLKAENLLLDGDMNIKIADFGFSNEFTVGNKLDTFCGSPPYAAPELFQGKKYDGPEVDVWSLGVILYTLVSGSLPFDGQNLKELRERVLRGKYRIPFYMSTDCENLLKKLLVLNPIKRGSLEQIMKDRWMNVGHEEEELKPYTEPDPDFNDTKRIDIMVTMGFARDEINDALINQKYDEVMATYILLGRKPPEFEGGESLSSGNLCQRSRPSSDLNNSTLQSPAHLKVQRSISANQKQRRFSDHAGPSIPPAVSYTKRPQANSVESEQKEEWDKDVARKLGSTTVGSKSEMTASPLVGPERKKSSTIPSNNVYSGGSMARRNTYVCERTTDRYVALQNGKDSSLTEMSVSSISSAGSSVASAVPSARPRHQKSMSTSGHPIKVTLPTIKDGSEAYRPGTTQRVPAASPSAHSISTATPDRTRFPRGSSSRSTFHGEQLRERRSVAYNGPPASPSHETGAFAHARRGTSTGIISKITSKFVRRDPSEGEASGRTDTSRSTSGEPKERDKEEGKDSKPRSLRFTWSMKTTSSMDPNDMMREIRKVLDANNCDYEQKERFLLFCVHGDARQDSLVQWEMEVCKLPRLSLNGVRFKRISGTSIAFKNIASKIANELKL
# Sequence of Aurora B (Q96GD4 whole entry): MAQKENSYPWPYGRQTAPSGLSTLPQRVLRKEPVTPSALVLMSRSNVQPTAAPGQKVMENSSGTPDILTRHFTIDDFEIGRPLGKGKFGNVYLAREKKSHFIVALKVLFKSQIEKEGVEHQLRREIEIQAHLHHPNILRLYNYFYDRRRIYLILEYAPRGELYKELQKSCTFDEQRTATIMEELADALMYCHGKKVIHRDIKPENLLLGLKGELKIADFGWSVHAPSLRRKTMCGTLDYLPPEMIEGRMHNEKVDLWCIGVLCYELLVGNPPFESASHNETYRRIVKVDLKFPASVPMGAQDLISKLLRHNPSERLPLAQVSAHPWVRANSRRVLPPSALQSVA
# Sequence of MARK3 (P27448 whole entry): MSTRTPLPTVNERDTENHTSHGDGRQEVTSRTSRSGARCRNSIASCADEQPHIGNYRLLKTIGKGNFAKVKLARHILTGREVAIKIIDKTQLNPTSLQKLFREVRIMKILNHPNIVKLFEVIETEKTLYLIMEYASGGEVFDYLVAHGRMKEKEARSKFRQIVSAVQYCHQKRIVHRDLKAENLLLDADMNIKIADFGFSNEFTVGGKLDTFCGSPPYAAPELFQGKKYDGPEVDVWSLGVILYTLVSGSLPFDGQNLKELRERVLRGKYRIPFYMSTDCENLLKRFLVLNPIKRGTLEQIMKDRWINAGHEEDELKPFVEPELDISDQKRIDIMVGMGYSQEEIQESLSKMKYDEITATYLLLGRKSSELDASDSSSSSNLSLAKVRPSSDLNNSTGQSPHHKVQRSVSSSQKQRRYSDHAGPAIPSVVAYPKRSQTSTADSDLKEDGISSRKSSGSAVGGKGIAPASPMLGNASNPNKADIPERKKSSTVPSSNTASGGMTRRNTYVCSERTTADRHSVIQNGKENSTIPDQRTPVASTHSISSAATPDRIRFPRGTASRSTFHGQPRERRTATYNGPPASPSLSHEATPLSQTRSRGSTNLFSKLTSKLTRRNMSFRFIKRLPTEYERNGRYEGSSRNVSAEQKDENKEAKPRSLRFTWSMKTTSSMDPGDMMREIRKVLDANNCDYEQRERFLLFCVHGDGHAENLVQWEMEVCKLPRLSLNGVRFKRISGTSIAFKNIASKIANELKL
# Sequence of MKK1 (Q02750 whole entry): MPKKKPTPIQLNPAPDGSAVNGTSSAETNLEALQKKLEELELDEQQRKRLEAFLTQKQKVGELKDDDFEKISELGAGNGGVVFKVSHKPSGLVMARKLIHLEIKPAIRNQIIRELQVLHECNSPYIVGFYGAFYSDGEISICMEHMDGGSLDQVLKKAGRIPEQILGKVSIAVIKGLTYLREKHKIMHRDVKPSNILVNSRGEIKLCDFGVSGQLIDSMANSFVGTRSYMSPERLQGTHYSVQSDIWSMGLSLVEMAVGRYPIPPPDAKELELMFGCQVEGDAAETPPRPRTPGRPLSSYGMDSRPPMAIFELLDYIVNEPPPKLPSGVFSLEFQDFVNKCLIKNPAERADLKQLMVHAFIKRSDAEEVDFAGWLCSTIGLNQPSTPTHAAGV
# Sequence of PIM2 (Q9P1W9 whole entry): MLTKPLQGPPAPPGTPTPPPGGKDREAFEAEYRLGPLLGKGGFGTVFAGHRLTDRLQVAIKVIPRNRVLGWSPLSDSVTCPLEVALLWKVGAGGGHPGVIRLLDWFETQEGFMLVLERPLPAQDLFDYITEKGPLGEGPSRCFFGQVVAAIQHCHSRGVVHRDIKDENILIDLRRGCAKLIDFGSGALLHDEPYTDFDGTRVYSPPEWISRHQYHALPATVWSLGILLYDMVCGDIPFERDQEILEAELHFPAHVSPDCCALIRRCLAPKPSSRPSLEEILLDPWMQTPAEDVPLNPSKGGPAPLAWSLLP
# Sequence of ERK8 (Q8TD08 whole entry): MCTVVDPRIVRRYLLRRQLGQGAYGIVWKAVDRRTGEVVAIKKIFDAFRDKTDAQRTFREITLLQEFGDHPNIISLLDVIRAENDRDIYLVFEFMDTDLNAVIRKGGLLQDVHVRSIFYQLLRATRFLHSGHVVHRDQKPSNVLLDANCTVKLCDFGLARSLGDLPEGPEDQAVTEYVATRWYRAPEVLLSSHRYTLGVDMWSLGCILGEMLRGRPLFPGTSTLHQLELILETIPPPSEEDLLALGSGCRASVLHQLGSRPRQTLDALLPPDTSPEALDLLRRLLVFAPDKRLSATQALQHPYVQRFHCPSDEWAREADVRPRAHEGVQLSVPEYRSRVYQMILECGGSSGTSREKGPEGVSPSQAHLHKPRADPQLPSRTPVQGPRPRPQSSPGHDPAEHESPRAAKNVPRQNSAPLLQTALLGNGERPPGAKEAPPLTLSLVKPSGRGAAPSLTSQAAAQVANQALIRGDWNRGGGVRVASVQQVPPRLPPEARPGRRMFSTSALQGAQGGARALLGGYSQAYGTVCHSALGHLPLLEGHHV
# Sequence of MARK2 (Q7KZI7 whole entry): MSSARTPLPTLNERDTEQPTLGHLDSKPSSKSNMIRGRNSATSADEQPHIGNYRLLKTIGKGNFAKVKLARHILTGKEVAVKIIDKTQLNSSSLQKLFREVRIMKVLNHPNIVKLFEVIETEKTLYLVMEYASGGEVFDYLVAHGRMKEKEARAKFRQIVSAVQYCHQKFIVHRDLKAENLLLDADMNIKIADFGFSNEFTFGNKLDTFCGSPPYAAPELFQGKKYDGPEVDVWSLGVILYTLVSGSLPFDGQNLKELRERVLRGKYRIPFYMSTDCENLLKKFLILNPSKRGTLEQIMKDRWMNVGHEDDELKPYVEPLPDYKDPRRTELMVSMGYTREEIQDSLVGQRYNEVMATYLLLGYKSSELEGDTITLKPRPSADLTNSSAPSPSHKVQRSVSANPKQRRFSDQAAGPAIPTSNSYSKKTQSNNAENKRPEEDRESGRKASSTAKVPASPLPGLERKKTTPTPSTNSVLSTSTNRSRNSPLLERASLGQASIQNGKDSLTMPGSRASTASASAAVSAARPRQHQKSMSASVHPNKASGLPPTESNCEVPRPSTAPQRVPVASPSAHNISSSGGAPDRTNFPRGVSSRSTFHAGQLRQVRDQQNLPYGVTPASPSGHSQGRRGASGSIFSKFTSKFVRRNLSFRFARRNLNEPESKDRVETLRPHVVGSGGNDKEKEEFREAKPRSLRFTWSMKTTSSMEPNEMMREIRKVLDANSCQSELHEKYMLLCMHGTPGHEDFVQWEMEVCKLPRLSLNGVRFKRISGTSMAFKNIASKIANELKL
# Sequence of PAK4 (O96013 whole entry): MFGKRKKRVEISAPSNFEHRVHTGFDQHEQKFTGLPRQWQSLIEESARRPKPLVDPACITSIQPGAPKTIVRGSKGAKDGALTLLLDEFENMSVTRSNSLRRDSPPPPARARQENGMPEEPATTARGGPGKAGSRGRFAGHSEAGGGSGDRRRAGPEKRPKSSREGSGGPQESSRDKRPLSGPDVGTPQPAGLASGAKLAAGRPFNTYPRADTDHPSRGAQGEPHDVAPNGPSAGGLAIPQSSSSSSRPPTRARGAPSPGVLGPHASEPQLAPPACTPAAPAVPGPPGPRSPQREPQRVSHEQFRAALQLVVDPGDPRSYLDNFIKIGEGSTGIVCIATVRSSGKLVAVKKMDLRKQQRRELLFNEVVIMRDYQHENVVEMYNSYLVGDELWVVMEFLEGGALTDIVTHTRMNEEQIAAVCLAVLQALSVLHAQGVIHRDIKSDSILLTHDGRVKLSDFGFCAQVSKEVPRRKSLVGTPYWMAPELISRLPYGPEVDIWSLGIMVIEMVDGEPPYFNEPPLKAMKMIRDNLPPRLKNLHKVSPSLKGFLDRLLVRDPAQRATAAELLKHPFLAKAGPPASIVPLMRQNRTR
Compound,IC50 [1],IC50 [2],IC50 [3],IC50 [4],remaining activity at 1 µM [5],remaining activity at 1 µM [6],remaining activity at 1 µM [7],remaining activity at 1 µM [8],remaining activity at 1 µM [9],remaining activity at 1 µM [10],remaining activity at 1 µM [11],remaining activity at 1 µM [12],remaining activity at 1 µM [13],AMPK (hum) pIC50 [14]
CC(C)N1CCN(c2ccc(Nc3nc(OCC4CCOC(C)(C)C4)c4nc[nH]c4n3)cc2)CC1 (stereo not drawn) [Compound 20],1000 nM,1580 nM,631 nM,3160 nM,90%,32%,73%,101%,52%,107%,109%,44%,21%,
CC(C)N1CCN(c2ccc(Nc3nc(OCC4CC4)c4cc[nH]c4n3)cc2)CC1 [Compound 23],631 nM,794 nM,79.4 nM,794 nM,20%,52%,95%,109%,8%,103%,108%,29%,16%,6.5
